US10045978B2 (AB SCIENCE, priority 2010, dated 2018)

Experiments:
[1] = system: patients with severe systemic mastocytosis; test: Example 5 post-hoc analysis of pooled phase 2 studies; type: in vivo, human
Experimental: A first phase 2 study was conducted in patients with indolent forms of mastocytosis with handicap and not bearing activating point mutations in the phosphotransferase domain of c-Kit such as the main mutation Asp-816-Val. A second phase 2 study was conducted in patients with mastocytosis with handicap and bearing activating point mutations in the phosphotransferase domain of c-Kit such as the main mutation Asp-816-Val.
In one scenario, among those systemic mastocytosis patients from these pooled studies, 28 patients met the criteria for severe handicap at baseline, as defined as having at least one handicap selected from pruritus, flushes, fatigue or depression (defined respectively as: pruritus score ≥9, flushes frequency per week ≥8, FIS ≥75, or Hamilton score ≥19) with a total of 53 severe baseline handicaps reported (note that a given patient may present with more than one handicap). Assessment of treatment response on a handicap was defined as a ≥75% improvement from baseline on at least one handicap among pruritus, flushes, fatigue or depression.
In an alternative scenario, among those systemic mastocytosis patients from these pooled studies, 4 patients met the criteria for severe handicap at baseline, as defined as having handicaps of both pruritus and flushes (defined respectively as: pruritus score ≥9, and flushes frequency per week ≥8) with a total of 8 severe baseline handicaps reported. Assessment of treatment response on a handicap was defined as a ≥75% improvement from baseline on at least one handicap among pruritus or flushes. Overall, at week 24 there was a response rate of 50.0%.

[2] = system: patients with indolent forms of mastocytosis with handicap; details: in vivo
[3] = from W8 to W24, listed as Masitinib

For `Cc1ccc(NC(=O)c2ccc(CN3CCN(C)CC3)cc2)cc1Nc1nc(-c2cccnc2)cs1` [masitinib, 4-(4-methylpiperazin-1-ylmethyl)-N-[4-methyl-3-(4-pyridin-3ylthiazol-2-ylamino)phenyl]benzamide], which “Overall response ≥75%” value ([1]; Week 12, at least one severe handicap at baseline (28 patients)) is on record?
The value was 28.3%.

What about the “Overall response ≥75%” value ([1]; Week 12, at least one severe handicap at baseline (28 patients), listed as Masitinib) of the same compound?
Its value is 25.0%.

And the “Overall response ≥75%” value ([1]; Week 24, at least one severe handicap at baseline (28 patients))?
The value was 23.5%.

And the “Overall response ≥75%” value ([1]; Week 24, at least one severe handicap at baseline (28 patients), listed as Masitinib)?
Its value is 23.5%.

What about the “Overall response ≥75%” value ([1]; Week 24, severe pruritus and flushes at baseline (4 patients, 8 handicaps)) of the same compound?
Its value is 50.0.

And the “Cumulative response rate (≥75%): FIS only” value ([1]; from W8 to W24)?
Its value is 8.0%.

And the “Cumulative response rate (≥75%): Flushes only” value ([1]; from W8 to W24)?
The value was 52.8%.

What about the “Cumulative response rate (≥75%): Flushes or Pruritus” value ([1]; from W8 to W24) of the same compound?
Its value is “approximately 40%”.

What about the “Cumulative response rate (≥75%): Hamilton only” value ([1]; from W8 to W24) of the same compound?
Its value is 16.7%.

And the “Cumulative response rate (≥75%): Hamilton or FIS” value ([1]; from W8 to W24)?
Its value is ~10%.

And the “Cumulative response rate (≥75%): Micturition frequency (pollakiuria) only” value ([1]; from W8 to W24)?
Its value is 1.8%.

And the “Cumulative response rate (≥75%): Overall Response” value ([1]; from W8 to W24)?
The value was 26.1%.

And the “Cumulative response rate (≥75%): Pruritus only” value ([1]; from W8 to W24)?
The value was 28.6%.

What about the “Cumulative response rate (≥75%): Stool frequency (diarrhea) only” value ([1]; from W8 to W24) of the same compound?
The value was 18.4%.

What about the “Cumulative response rate (≥75%): Flushes or Pruritus” value [1, 3] of the same compound?
Its value is 38.8%.

And the “Cumulative response rate (≥75%): Hamilton or FIS” value [1, 3]?
Its value is 10.3%.

And the “deaths during the study” value [2]?
The value was “No deaths”.
